Reference: PubChem BioAssay AID493102 (Broad Institute, 2011)

Test system: SK-MEL-5 TRPM1-promoter luciferase reporter, 24 h
Experiment: reducers of TRPM1 reporter luminescence, concentration series – cell-based, SK-MEL-5, cherry-picked, set 4, MITF inhibitor project, dose response (AID 493102);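 further: actives lower the luciferase signal so the potency reflects inhibition of reporter expression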

Row | Compound | AC50 [µM]
1 | C=CCNC1=C(Cl)C(=O)c2ccccc2C1=O | 4.06
2 | O=C(CNc1ccc2ccccc2c1)N/N=C/c1ccc([N+](=O)[O-])o1 | 4.95
3 | CC(NC(=O)c1ccc([N+](=O)[O-])o1)C12CC3CC(CC(C3)C1)C2 (stereo not given) | 15.1
4 | O=C(O)c1ccc(N/N=C/c2ccc3nccnc3c2)cc1 | 0.696
5 | Cc1ccc(-c2nc(C(=O)NCCCN(C)C)cc3c2[nH]c2ccccc23)cc1 | 11.2
6 | O=[N+]([O-])c1ccc(/C=N/n2cnc3ccccc32)s1 | 6.25
7 | CCOC(=O)N1C(=O)[C@@](CC)(c2ccccc2)N1C(=O)OCC | 12.5
8 | COc1ccc2nc(C)cc(SCC(=O)N/N=C/c3ccc(O)cc3O)c2c1 | 10.1
9 | CC1(C(=O)N/N=C/c2ccc([N+](=O)[O-])o2)CC1(Br)Br (stereo not given) | 10.3
10 | CCN(CC)CCNC(=O)c1ccc(NC(=O)c2cccc(S(=O)(=O)N3c4ccccc4CC3C)c2)cc1 (stereo not given) | 10.5
11 | COc1cc(OC)cc(-c2oc(=O)c3cc(OC)c(OC)cc3c2C(F)(F)F)c1 | 12.8
12 | COC(=O)c1ccc2c(c1O)C(=O)c1ccccc1C2=O | 1.61
13 | CCOC(=O)N1CCN(C(=O)c2ccc(Cn3c(=S)[nH]c4ccc(Br)cc4c3=O)cc2)CC1 | 3.52
14 | CN(C)CC1CC/C(=C\c2ccc(O)cc2)C1=O (stereo not given) | 12.9
15 | Cn1c(SC2=CS(=O)(=O)c3ccccc32)nc2ccccc21 | 6.72
16 | C=CCOc1ccc(/C=C2\SC(=S)N(CCC(=O)O)C2=O)cc1 | 0.337
17 | CC1C/C(=C\c2cccnc2)C(=O)/C(=C/c2cccnc2)C1 (stereo not given) | 2.66
18 | COc1cc(SC)ccc1C(=O)Nc1ncc(C)s1 | 3.65
19 | CCCNC(=O)COC(=O)c1ccccc1C(=O)c1ccc(Cl)c([N+](=O)[O-])c1 | 8.34
20 | O=[N+]([O-])c1ccc(-n2nnnc2-c2ccccc2)c([N+](=O)[O-])c1 | 7.37
21 | O=C1Nc2cc(C(=O)NCCN3CCCCCC3)ccc2S/C1=C\c1ccccc1 | 9.78
22 | O=C(COC(=O)c1ccccc1C(=O)c1ccc(Cl)c([N+](=O)[O-])c1)NC1CC1 | 8.92
23 | COc1ccc(COC(=O)c2cc([N+](=O)[O-])ccc2N2CCOCC2)cc1F | 0.023
24 | Cn1c(=O)c([N+](=O)[O-])c(-n2ccnc2)c2ccccc21 | 6.6
25 | CCOCCCNC(=O)/C(C#N)=C/c1ccc(Cl)c([N+](=O)[O-])c1 | 7.38
26 | Cc1nn(-c2ccccc2Cl)c(Cl)c1/C=N/Nc1cccc(C(=O)O)c1 | 5.5
27 | Cc1cc2ncn(/N=C/c3ccc([N+](=O)[O-])o3)c2cc1C | 21.9
28 | O=S(=O)(CC(CN1CCCCC1)N1CCCCC1)c1ccc2ccccc2c1 (stereo not given) | 12.5

Row | Compound | AC50 [µM]
29 | CCOc1ccc2nc(NC3=NC(c4ccc(OC)cc4)CC(=O)N3)nc(C)c2c1 (stereo not given) | 9.49
30 | CC1=NOC(=O)/C1=C\c1ccc(-c2cccc(Cl)c2)o1 | 5.36
31 | CN1CCN(c2ccccc2NC(=O)c2ccc([N+](=O)[O-])o2)CC1 | 4.95
32 | Cn1cccc1C(=O)NC(=O)COC(=O)c1ccc(S(C)(=O)=O)c([N+](=O)[O-])c1 | 9.23
33 | CCN1c2ccccc2NC2C1C(C(C)=O)C(=O)N2c1ccc(Cl)cc1 (stereo not given) | 12.7
34 | CCN(CC)S(=O)(=O)c1cccc(C(=O)N/N=C/c2ccc([N+](=O)[O-])o2)c1 | 14.1
35 | O=C(NCc1cccs1)c1nc2c(nnn2Cc2ccccc2Cl)c(=O)[nH]1 | 6.66
36 | C=CCN=C1NN=C(c2ccc3c(c2)OCCO3)CS1 | 3.37
37 | CC1CCC(C(C)C)C(OC(=O)Cn2c(-c3ccc(F)cc3)[n+](C)c3ccccc32)C1 (stereo not given) | 5.57
38 | CC(=O)c1ccc(Sc2nnnn2-c2ccccc2)c([N+](=O)[O-])c1 | 7.82
39 | N#C/C(=C\C=C\c1ccccc1[N+](=O)[O-])C(=O)NC1CCCCC1 | 7.8
40 | Cc1ccc(C(=O)N/N=C/c2ccc([N+](=O)[O-])s2)cc1 | 2.2
41 | CC(C)[C@H](NC(=O)OC(C)(C)C)c1nnc(S(=O)(=O)Cc2c(F)cccc2Cl)o1 | 11.6
42 | O=C(N/N=C/c1cc(Br)ccc1O)c1ccncc1 | 9.36
43 | COc1ccc(C(=O)/C=C/Nc2ccccn2)cc1 | 3.72
44 | CN(C)c1ccc(/C=C2\SC(=O)N(CCc3nnc(N)s3)C2=O)cc1 | 2.54
45 | CC(C)(C)C(=O)/C(=C/c1ccncc1)n1cncn1 | 6.63
46 | O=C(/C=C\Nc1ccc2c(c1)OCO2)c1ccccn1 | 2.08
47 | COc1cc2c(cc1OC)C(SC)=NC1(CCCC1)C2 | 9.44
48 | CC(C)n1c(O)c(C2c3cc(Cl)ccc3Oc3[nH]c(=O)n(C(C)C)c(=O)c32)c(=O)[nH]c1=O (stereo not given) | 5.39
49 | CN(C(=O)/C=C/c1ccc([N+](=O)[O-])s1)c1ccccc1 | 9.11
50 | CCN(CC)CCCNC1=C(Cl)C(=O)c2ccccc2C1=O | 1.79
51 | Cc1c(NC(=O)C(C)OC(=O)c2ccc([N+](=O)[O-])s2)c(=O)n(-c2ccccc2)n1C (stereo not given) | 34.1
52 | Cc1ccc(NC2=C(Cl)C(=O)c3ccccc3C2=O)cc1 | 5.25
53 | O=[N+]([O-])c1cc(Cl)cc(/C=N\Nc2ccccn2)c1O | 4.49
54 | O=C(N/N=C\c1cc(Cl)ccc1O)c1ccc(S(=O)(=O)N2CCCCC2)cc1 | 2.81
55 | O=C1NC(=S)NC(=O)C1=Cc1cccc2cc3ccccc3cc12 | 4.81
